20 compounds from US20230082430A1 (C4 Therapeutics, Inc., priority 2019, published 2023) can be followed below.

The IC50 is the concentration that inhibits the measured activity by half.

The structures appear in SMILES notation.

This assay deals with NCIH929.1 cells. Briefly: Cell viability assay for Table 2 (CellTiter-Glo 2.0, ATP quantification, 96 hr). The class given is cell-based. The note with it: 96 h, NCIH929.1 cell viability, 96 hr, top concentration 1 μM, 14 points half log titration; read-out: IC50. An excerpt:
Cell Viability Assay for Table 2
CellTiter-Glo® 2.0 Assay was purchased from Promega (Madison, Wis., USA). NCIH929.1 cell line was purchased from ATCC (Manassas, Va., USA). Cell culture flasks and 384-well microplates were acquired from VWR (Radnor, Pa., USA).
Consider `CC(C)(C)OC(=O)N1CCC(n2cc(Nc3ccc4c5c(cccc35)C(=O)N4C3CCC(=O)NC3=O)c(Cl)n2)CC1` (centres unmarked) [Compound 250, tert-butyl 4-[3-chloro-4-[[1-(2,6-dioxo-3-piperidyl)-2-oxo-benzo[cd]indol-6-yl]amino]pyrazol-1-yl]piperidine-1-carboxylate], for which the half-inhibitory concentration (IC50) is below 100 nM.
The value for `CC1(C(=O)N2CCC(n3cc(Nc4ccc5c6c(cccc46)C(=O)N5C4CCC(=O)NC4=O)c(Cl)n3)CC2)CCC1` (centres unmarked) [Compound 251, 3-[6-[[3-chloro-1-[1-(1-methylcyclobutanecarbonyl)-4-piperidyl]pyrazol-4-yl]amino]-2-oxo-benzo[cd]indol-1-yl]piperidine-2,6-dione] was below 100 nM.
The value for `CN(c1cnn(C2CCN(C(=O)OC(C)(C)C)CC2)c1)c1ccc2c3c(cccc13)C(=O)N2C1CCC(=O)NC1=O` (centres unmarked) [Compound 252, tert-butyl 4-[4-[[1-(2,6-dioxo-3-piperidyl)-2-oxo-benzo[cd]indol-6-yl]-methyl-amino]pyrazol-1-yl]piperidine-1-carboxylate] was below 100 nM; that for `CC1(C(=O)N2CCC(n3cc(Cc4ccc5c6c(cccc46)C(=O)N5C4CCC(=O)NC4=O)c4cccnc43)CC2)CCC1` (centres unmarked) [Compound 253, 3-[6-[[1-[1-(1-methylcyclobutanecarbonyl)-4-piperidyl]pyrrolo[2,3-b]pyridin-3-yl]methyl]-2-oxo-benzo[cd]indol-1-yl]piperidine-2,6-dione] was below 1 nM; that for `O=C1CCC(N2C(=O)c3cccc4c(Cc5ccc(CN6CCC(Oc7ccc(F)cc7)CC6)cc5)ccc2c34)C(=O)N1` (centres unmarked) [Compound 258, 3-(6-(4-((4-(4-fluorophenoxy)piperidin-1-yl)methyl)benzyl)-2-oxobenzo[cd]indol-1(2H)-yl)piperidine-2,6-dione] was below 1 nM.
Regarding `CC(C)(C)C[C@H]1CC[C@@H](n2cc(Cc3ccc4c5c(cccc35)C(=O)N4C3CCC(=O)NC3=O)cn2)CC1` (some centres unmarked) [Compound 259, 3-(6-((1-((1r,4r)-4-neopentylcyclohexyl)-1H-pyrazol-4-yl)methyl)-2-oxobenzo[cd]indol-1(2H)-yl)piperidine-2,6-dione], the half-inhibitory concentration (IC50) was below 1 nM.
Turning to `CC(C)(C)C[C@H]1CC[C@H](n2cc(Cc3ccc4c5c(cccc35)C(=O)N4C3CCC(=O)NC3=O)cn2)CC1` (some centres unmarked) [Compound 260, 3-(6-((1-((1s,4s)-4-neopentylcyclohexyl)-1H-pyrazol-4-yl)methyl)-2-oxobenzo[cd]indol-1(2H)-yl)piperidine-2,6-dione], the IC50 is below 1 nM.
On to `CN(C(=O)N1CCC(n2cc(Cc3ccc4c5c(cccc35)C(=O)N4C3CCC(=O)NC3=O)cn2)CC1)C1CC1` (centres unmarked) [Compound 261, N-cyclopropyl-4-(4-((1-(2,6-dioxopiperidin-3-yl)-2-oxo-1,2-dihydrobenzo[cd]indol-6-yl)methyl)-1H-pyrazol-1-yl)-N-methylpiperidine-1-carboxamide], for which the IC50 was below 1 nM.
The value for `N#Cc1ccc(N2CCN(C3(c4ccc(Cc5ccc6c7c(cccc57)C(=O)N6C5CCC(=O)NC5=O)cc4)CC3)CC2)c(F)c1` (centres unmarked) [Compound 262, 4-[4-(1-{4-[1-(2,6-Dioxo-piperidin-3-yl)-2-oxo-1,2-dihydro-benzo[cd]indol-6-ylmethyl]-phenyl}-cyclopropyl)-piperazin-1-yl]-3-fluoro-benzonitrile] was below 1 nM; that for `CC1(C(=O)N2CCN(C3(c4ccc(Cc5ccc6c7c(cccc57)C(=O)N6C5CCC(=O)NC5=O)cc4)CC3)CC2)CCC1` (centres unmarked) [Compound 263, 3-[6-(4-{1-[4-(1-Methyl-cyclobutanecarbonyl)-piperazin-1-yl]-cyclopropyl}-benzyl)-2-oxo-2H-benzo[cd]indol-1-yl]-piperidine-2,6-dione] was below 1 nM; that for `O=C1CCC(N2C(=O)c3cccc4c(Cc5ccc(C6(N7CCN(c8ccccc8F)CC7)CC6)cc5)ccc2c34)C(=O)N1` (centres unmarked) [Compound 264, 3-[6-(4-{1-[4-(2-Fluoro-phenyl)-piperazin-1-yl]-cyclopropyl}-benzyl)-2-oxo-2H-benzo[cd]indol-1-yl]-piperidine-2,6-dione] was below 1 nM.
Take `CN1CC2CC(C(=O)N3CCC(n4cc(Cc5ccc6c7c(cccc57)C(=O)N6C5CCC(=O)NC5=O)cn4)CC3)(C2)C1` (centres unmarked) [Compound 265, 3-(6-((1-(1-(3-methyl-3-azabicyclo[3.1.1]heptane-1-carbonyl)piperidin-4-yl)-1H-pyrazol-4-yl)methyl)-2-oxobenzo[cd]indol-1(2H)-yl)piperidine-2,6-dione]: the IC50 is below 1 nM.
The value for `CC(C)(C)OC(=O)N1CCC(n2cc(C(O)c3ccc4c5c(cccc35)C(=O)N4C3CCC(=O)NC3=O)cn2)CC1` (centres unmarked) [Compound 266, tert-butyl 4-[4-[[1-(2,6-dioxo-3-piperidyl)-2-oxo-benzo[cd]indol-6-yl]-hydroxy-methyl]pyrazol-1-yl]piperidine-1-carboxylate] was below 1 nM; that for `O=C1CCC(N2C(=O)c3cccc4c(Cc5ccc(CN6CCC7(CCCO7)CC6)cc5)ncc2c34)C(=O)N1` (centres unmarked) [Compound 267, 3-[24-[[4-(1-oxa-8-azaspiro[4.5]decan-8-ylmethyl)phenyl]methyl]-28-oxo-31,34-diazatricyclododeca-,2(22),7(23),21(25),24(31)-pentaen-34-yl]piperidine-2,6-dione] was below 1 nM; that for `O=C1CCC(N2C(=O)c3cccc4c(Cc5ccc(CN6CCOCC6)nc5)ccc2c34)C(=O)N1` (centres unmarked) [Compound 269, 3-[6-[[6-(morpholinomethyl)-3-pyridyl]methyl]-2-oxo-benzo[cd]indol-1-yl]piperidine-2,6-dione] was below 1 nM.
In the case of `CC1(C(=O)N2CCC(c3cnn(Cc4ccc5c6c(cccc46)C(=O)N5C4CCC(=O)NC4=O)c3)CC2)CCC1` (centres unmarked) [Compound 270, 3-[6-[[4-[1-(1-methylcyclobutanecarbonyl)-4-piperidyl]pyrazol-1-yl]methyl]-2-oxo-benzo[cd]indol-1-yl]piperidine-2,6-dione], the IC50 was below 1 nM.
For `CC1(C(=O)N2CCC(C)(n3cc(Cc4ccc5c6c(cccc46)C(=O)N5C4CCC(=O)NC4=O)cn3)CC2)CCN(c2ccccn2)CC1` (centres unmarked) [Compound 271, 3-(6-((1-(4-methyl-1-(4-methyl-1-(pyridin-2-yl)piperidine-4-carbonyl)piperidin-4-yl)-1H-pyrazol-4-yl)methyl)-2-oxobenzo[cd]indol-1(2H)-yl)piperidine-2,6-dione], the IC50 is below 1 nM.
The value for `CC1(n2cc(Cc3ccc4c5c(cccc35)C(=O)N4C3CCC(=O)NC3=O)cn2)CCN(C(=O)C2CCN(c3ccccn3)CC2)CC1` (centres unmarked) [Compound 272, 3-[6-[[1-[4-methyl-1-[1-(2-pyridyl)piperidine-4-carbonyl]-4-piperidyl]pyrazol-4-yl]methyl]-2-oxo-benzo[cd]indol-1-yl]piperidine-2,6-dione] was below 1 nM.
With `O=C1CCC(N2C(=O)c3cccc4c(Oc5ccc(CN6CCOCC6)cc5)ccc2c34)C(=O)N1` (centres unmarked) [Compound 273, 3-(6-(4-(morpholinomethyl)phenoxy)-2-oxobenzo[cd]indol-1(2H)-yl)piperidine-2,6-dione], the IC50 is below 100 nM.
The value for `CC1(CN2CCC(n3cc(Cc4ccc5c6c(cccc46)C(=O)N5C4CCC(=O)NC4=O)cn3)CC23CC3)CCC1` (centres unmarked) [Compound 275, 3-[6-[[1-[4-[(1-methylcyclobutyl)methyl]-4-azaspiro[2.5]octan-7-yl]pyrazol-4-yl]methyl]-2-oxo-benzo[cd]indol-1-yl]piperidine-2,6-dione] was below 1 nM.
